According to patent US20230020092 (published 2023):
{C6NH2} = C6 amino linker (-C6-NH2)

Assay: fmoc spps; Rink amide resin (1.0 mmol/g); HATU/DIEA (cyclization)
Conditions: conjugation step, scale 1 mmol, TFA salt

5'-GCT ATT ACC TTA ACC CAG-3' -C6-NH2 (all PMO monomers) (SEQ ID NO: 222) (GCTATTACCTTAACCCAG; all phosphorodiamidate morpholino (PMO), 3' {C6NH2})
final purity method not stated: >99%
